Data as given in paper PMC11944387, “Cannabidiol-Based Thiosemicarbazones: A Preliminary Study Evaluating Their Anti-Tyrosinase Properties” (Molecules, 2025).
Values joined by “and” are separate entries in the source; they are usually repeats but may differ in a detail not shown here. Identical values can stand only once. “Also recorded” adds a separate entry of the source.

Tests used:
[1] = DPPH radical-scavenging assay; conditions: 100 μM DPPH in ethanol, 30 min at room temperature in the dark, absorbance 517 nm; mean ± SD
Experimental: The total antioxidant capacity of the synthesized compounds was determined using the DPPH radical as a reagent, according to the procedure described by Chang et al. with some modifications. Briefly, 100 μL of 100 μM solution of DDPH in ethanol was added to 10 μL of the synthesized compounds at different concentrations (500, 250, 125, 62.5, 31.25, 15.62, and 7.81 μM). […] The percentage of the inhibition of DPPH oxidation was calculated according to the following formula: DPPHscavengingeffect%=Acontrol−Asample/Acontrol×100 where Acontrol means the absorbance of the control sample and Asample means the absorbance of the standard or tested compound.

[2] = Ferric-reducing antioxidant power (FRAP) assay; conditions: trolox equivalent; 45 min at 37 °C, absorbance 595 nm
Experimental: The antioxidant capacity of the synthesized compounds was evaluated by the reduction of the ferric 2,4,6-tripyridyl-s-triazine complex (Fe^3+-TPTZ) to the ferrous form (Fe^2+-TPTZ) at low pH, which causes a colored ferrous–tripyridyltriazine complex to form, according to the procedure described by Benzie et al., with some modifications. Briefly, 20 µL of the tested compound was mixed with 130 µL FRAP reagent (buffer acetate pH = 3.6, 10 mM TPTZ, 40 mM HCl, 20 mM FeCl3/H2O ratio 10:1:1) and then incubated for 45 min at 37 °C. FRAP values were obtained by comparing the absorbance change at 595 nm in test reaction mixtures with those containing ferrous ions in known concentrations using trolox as a calibration curve (concentrations between 7.8 and 500 µM). The results were expressed as μM of trolox equivalent (TE). The absorbance was measured using a Tecan Infinite 200 PRO plate reader.

[3] = target: mushroom TYR; assay: Inhibition of diphenolase activity of mushroom TYR (L-DOPA substrate); format: biochemical, Agaricus bisporus; conditions: for IC50: diphenolase activity, L-DOPA 2 mM, pH 6.8, 37 °C, read-out: IC50 against mushroom TYR catalyzing oxidation of L-DOPA; for Inhibitory activity on TYR (in words): discussion of Table 1, mushroom TYR
Experimental: The inhibitory effects of the thiosemicarbazone–CBD–aldehyde derivatives on the diphenolase activity of mushroom TYR were assessed by UV-Vis spectrometry using L-DOPA as the substrate.
A potassium phosphate buffer (80 μL, 50 mM, pH 6.8), 20 μL of tyrosinase (100 units/mL), and 2 μL of the tested compounds (10–150 μM) dissolved in dimethyl sulfoxide (DMSO) were added to 96-well plates. After incubation at 37 °C for 20 min, 100 μL of L-DOPA (2 mM) was added. The absorbance changes at 475 nm (ε = 3.7 × 10^3 M^−1cm^−1) were immediately monitored for 20 min at 37 °C using a Tecan Infinite 200 PRO plate reader. […] Dose–response curves were generated by conducting assays with increasing concentrations of each inhibitor. To ensure measurement accuracy, all experiments were performed in triplicate, with the average value used as the final result.

[4] = tested on: mushroom TYR; assay: Monophenolase inhibition assay of mushroom TYR (L-tyrosine substrate), lag time; format: biochemical, Agaricus bisporus; conditions: oxidation of L-tyrosine by mushroom TYR; for Lag time: compound 20 μM, without inhibitor 4.40 min; for Lag phase: control 264 s
Experimental: Additionally, the impact of the newly synthesized compounds on the initial stage of TYR enzymatic activity was evaluated using L-tyrosine as the substrate. This initial phase is characterized by a lag period and an increased reaction rate.
[…] After incubation at 37 °C for 20 min, 100 μL of L-tyrosine (2 mM) was added. The absorbance changes at 475 nm were immediately monitored for 40 min at 37 °C using a Tecan Infinite 200 PRO plate reader. The lag time was determined from the plot of absorbance at 475 nm versus time (min) by extrapolating the linear portion of the curve to the x-axis.

[5] = tested on: mushroom TYR; assay: Inhibition kinetics on diphenolase activity of TYR (Lineweaver–Burk); format: biochemical, Agaricus bisporus; conditions: Lineweaver–Burk plot, L-DOPA 0.1–1 mM, compound 2.5–30 μM
Experimental: The inhibition mechanism of compound 5 on the diphenolase activity of TYR was further studied. The inhibition type was determined by the classical Lineweaver–Burk plot based on the inhibitory results of 5.
To evaluate the inhibition kinetics of tyrosinase, assays were conducted in phosphate buffer (50 mM, pH 6.8) using L-DOPA as the substrate (0.1–1 mM) and tyrosinase ([…]) in the presence of varying concentrations of compound 5 (2.5–30 μM) under the same conditions as described in Section 4.4. Absorbance changes at 475 nm were continuously monitored for 40 min at 37 °C using a Tecan Infinite 200 PRO plate reader. Initial reaction velocities (V0) were determined for each inhibitor concentration, and kinetic parameters (Kₘ and Vₘₐₓ) were analyzed using Lineweaver–Burk and Michaelis–Menten plots to determine the type of inhibition. All experiments were performed in triplicate to ensure reproducibility.

[6] = tested on: mushroom TYR; assay: Fluorescence quenching assay of TYR; format: binding, Agaricus bisporus; conditions: 310 K; for kq (bimolecular quenching rate constant): from Ksv with τ0 = 10^−8 s; for ka (binding constant): static quenching, double-log equation; for Ksv (Stern–Volmer quenching constant): λex 280 nm, pH 6.8
Experimental: The fluorescence quenching spectra were recorded with an excitation wavelength (λex = 280 nm) and excitation and emission slit widths of 5 nm. A potassium phosphate buffer (80 μL, 50 mM, pH 6.8), 20 μL of tyrosinase (100 units/mL), and 2 μL of the tested compounds (10–100 μM) dissolved in DMSO were added to 96-well plates. After incubating at 37 °C for 20 min, the fluorescence spectrum was recorded at an emission range from 315 to 415 nm. Fluorescence quenching is described by the Stern–Volmer equation [69]: F0/F=1+Kqτ0[Q]=1+ksv[Q]
For the static quenching interaction, the binding affinity (Ka) and the number of binding sites (n) between the inhibitor and TYR were determined using the following calculations:(1) logF0−F/F=nlogQ+logka where F and F0 represent the fluorescence intensities of protein in the presence and absence of a quencher, respectively. [Q] is the quencher concentration. Ksv is the Stern–Volmer quenching constant, and kq is the rate constant of the bimolecular quenching process. τ0 is the average fluorescence lifetime of the fluorophores in the absence of the quencher, with a typical value of 10^−8 s for biological macromolecules.

| Compound | IC50 [1] [µM] | FRAP value [2] [μM TE] | IC50 [3] [µM] | Inhibitory activity on TYR (in words) [3] | Lag time [4] | Lag phase [4] [s] | Inhibition type [5] | kq (bimolecular quenching rate constant) [6] [M⁻¹ s⁻¹] | ka (binding constant) [6] [M⁻¹] | Ksv (Stern–Volmer quenching constant) [6] [M⁻¹] |
| --- | --- | --- | --- | --- | --- | --- | --- | --- | --- | --- |
| C=C(C)[C@@H]1CCC(C)=C[C@H]1c1c(O)cc(CCCCC)cc1O [Compound 1, Cannabidiol] | 506.1 ± 4.67 | 282.1 ± 5.68 | > 100 |  |  |  |  |  |  |  |
| C=C(C)[C@@H]1CCC(C)=C[C@H]1c1c(O)cc(CCCCC)c(C=O)c1O [Compound 2] |  |  | > 100 |  |  |  |  |  |  |  |
| C=C(C)[C@@H]1CCC(C)=C[C@H]1c1c(O)cc(CCCCC)c(/C=N/NC(N)=O)c1O [Compound 3] |  |  | > 100 | did not exhibit any inhibitory activity |  |  |  |  |  |  |
| C=C(C)[C@@H]1CCC(C)=C[C@H]1c1c(O)cc(CCCCC)c(/C=N/NC(=N)N)c1O [Compound 4] |  |  | > 100 | did not exhibit any inhibitory activity |  |  |  |  |  |  |
| C=C(C)[C@@H]1CCC(C)=C[C@H]1c1c(O)cc(CCCCC)c(/C=N/NC(N)=S)c1O [Compound 5, 3-thiosemicarbazone–CBD–aldehyde] | 53.5 ± 5.29 | 1257 ± 6.78 | 27.7 ± 1.84 |  | 9.89 min and 9.89 ± 0.66 min | 593 | mixed-type inhibition; also recorded: reversible, mixed-type inhibitor | 7.61e+11 | 12100 | 7610 |
| C=C(C)[C@@H]1CCC(C)=C[C@H]1c1c(O)cc(CCCCC)c(/C=N/NC(=S)NC)c1O [Compound 6, 3-(4-methyl-3-thiosemicarbazone)–CBD–aldehyde] | 63.7 ± 3.29 |  | 29.4 ± 2.22 |  | 6.06 min and 6.06 ± 0.11 min | 363 |  | 9.98e+11 | 8700 | 9980 |
| C=C(C)[C@@H]1CCC(C)=C[C@H]1c1c(O)cc(CCCCC)c(/C=N/NC(=S)N(C)C)c1O [Compound 7, 3-(4,4-dimethyl-3-thiosemicarbazone)–CBD–aldehyde] | 116 ± 5.05 | 981.9 ± 9.66 | 28.1 ± 1.82 |  | 6.19 min and 6.19 ± 0.27 min | 371 |  | 1.38e+12 | 5200 | 13800 |
| C=C(C)[C@@H]1CCC(C)=C[C@H]1c1c(O)cc(CCCCC)c(/C=N/NC(=S)Nc2ccccc2)c1O [Compound 8, 3-(4-phenyl-3-thiosemicarbazone)–CBD–aldehyde] | 57.6 ± 1.71 | 931.7 ± 8.97 | 42.2 ± 3.52 |  | 4.58 min and 4.58 ± 0.04 min | 274 |  | 4.68e+12 | 25500 | 46800 |
| C=C(C)[C@@H]1CCC(C)=C[C@H]1c1c(OC)cc(CCCCC)c(/C=N/NC(N)=S)c1OC [Compound 9, 3-thiosemicarbazone–CBD–dimethylether] | 316 ± 16 | 431.5 ± 13.51 | 22.4 ± 2.9 |  | 6.67 min and 6.67 ± 0.17 min | 400 |  | 1.3e+12 | 13100 | 13000 |
| Cc1c(C)c2c(c(C)c1O)CCC(C)(C(=O)O)O2 (stereo not shown) [trolox, reference compound] | 54.6 ± 3.45 |  |  |  |  |  |  |  |  |  |
